Data: US20260355199A1, “COMPOSITIONS AND METHODS FOR TREATING OR PREVENTING NONALCOHOLIC STEATOHEPATITIS (NASH), ANOREXIA, DEPRESSION, ENDOMETRIOSIS, AND OTHER DISEASES OR DISORDERS” (priority 2022, published 2026)
“Also recorded” adds a separate entry of the source.

What was measured:
TGF-β1, IL-1β, and IL-6 = experiment: TGF-β1, IL-1β and IL-6 expression in human MDMs; format: cell-based; conditions: TGF-β1-treated MDMs
Description: Next, the studies examined effects of TET3 knockdown on expression of TGF-β1, IL-1β, and IL-6 in human MDMs. TGF-β1 has been mechanistically linked to the pathogenesis NSCLC, endometriosis, and NASH (Saito et al., 2018, Int J Mol Sci, 19; Young et al., 2017, Hum Reprod Update, 23:548-559; Cai et al., 2020, Cell Metab, 31:406-421; Baba et al., 2022, Front Pharmacol, 13:791272). It is also an important factor in the conditioned media responsible for inducing TET3 overexpression (FIG. 24H, FIG. 24J, and FIG. 24K through FIG. 24M). Therefore, MDMs were treated with TGF-β1 to mimic microenvironment-induced TET3 overexpression, followed by siRNA transfection and gene expression analyses. […] ELISA was not used to measure TGF-β1 because the transfection experiments were performed in the presence of exogenous TGF-β1. […]
Proinflammatory activation of peritoneal macrophages and MDMs was achieved by treatment with a combination of 10 ng/mL of LPS (Invitrogen, 00-4976-93) and 20 ng/mL of IFN-γ (R&D Systems, 485-MI-100). IL-1β and IL-6 protein levels in the supernatant of cultured mouse peritoneal macrophages were measured using ELISA kits (R&D Systems, MLB00C and M6000B-1). […]
IL-1β protein level of cell lysates and IL-6 protein level of cell supernatants were determined using the kits (Elabscience, E-EL-H0149c and E-EL-H6165, respectively) according to the manufacturer's protocols. […]

Tet3 and Agrp = Tet3 and Agrp expression in leptin-treated GT1-7 cells; format: cell-based, mouse
Description: Mouse GT1-7 hypothalamic neuronal cell line (Sigma-Aldrich, SCC116), human SH-SY5Y neuronal blastoma cell line (ATCC, CRL-2266), and embryonic mouse hypothalamus cell line N11 (mHypoE-N11) (Cedarlane, CLU107) were purchased and cultured according to the manufacturers' instructions. For siRNA transfection in a 24-well plate scale, cells were seeded at a density of 2×10^5 cells/well the day before transfection. To prepare siRNA transfection solution for each well of cells, 5 pmol of NT siRNA (non-targeting control siRNA, AM4636, Ambion), Tet3 siRNA (siRNA specifically targeting mouse Tet3, 4390815/s101483, Ambion), or TET3 siRNA (siRNA specifically targeting human TET3, 4392420/s47238, Ambion) (Cao et al., 2019, Oncogene, 38:5356-5366; Xu et al., 2020, Cell Rep., 30:1310-1318) were mixed with 25 μl of OPTI-MEM (Gibco, 31985-070) by gentle pipetting (Cao, T. et al., 2019, Oncogene, 38:5356-5366; Xu, Y. et al., 2020, Cell Reports, 30:1310-1318 e5). In parallel, 1.5 μl of Lipofectamine RNAiMAX (Invitrogen, 13778-150) was mixed with 25 μl of OPTI-MEM by gentle pipetting. Following 5 min of incubation at room temperature, the resulting 50 μl of transfection solution was added to one well of cells containing 1 ml culture media. […]

| Compound | TGF-β1, IL-1β, and IL-6 expression (TGF-β1, IL-1β, and IL-6) | Tet3 expression (Tet3 and Agrp; leptin 1×10^−8 M vs. 1×10^−10 M) | Agrp expression in response to increased leptin (Tet3 and Agrp; with TET3 knockdown) |
| --- | --- | --- | --- |
| Nc1nc(=O)n(-c2cccc(-c3ccccc3)c2)cc1Cl [Bobcat339, 4-Amino-1-[1,1′-biphenyl]-3-yl-5-chloro-2(1H)-pyrimidinone] | able to recapitulate these effects on all three factors | – | – |
| leptin: adipose hormone; mouse leptin L3772-1MG or human leptin L4146-1MG, Sigma Aldrich | – | a positive effect on Tet3 expression; also recorded: upregulated TET3 | no longer decreased in response to increased leptin |
